Results from US10765114B2, “4-amino-6-(pyridyl and 2-substitutedphenyl)-picolinates and 6-amino-2-(pyridyl and 2-substitutedphenyl)-pyrimidine-4-carboxylates and their use as herbicides” (Dow AgroSciences LLC, priority 2013, dated 2020).

System: Key Grass and Sedge Weeds as well as Grass Crops
Test: Post-Emergent Test II (Table 6)
Assay type: in vivo
Conditions: post-emergence, 336 h, CYPSS, 70 g ai/ha, 14 days after application, read-out: Visual Growth Reduction (%) 14 Days After Application CYPSS
In short: (§1)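 Plants at first or second true-leaf stage, grown 7-21 days in greenhouse, were sprayed post-emergence at 187 L/ha with compounds in acetone/DMSO/water/crop oil/surfactant mixture at the high rate and ½× to 1/16× dilutions. Injury scored visually after 14 days, 0 (none) to 100% (complete kill), versus untreated plants.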

SMILES | pest or weed control at 70 g/ha [%]
COC(=O)c1nc(-c2ccc(F)c(F)c2C)cc(N)c1Cl [Compound 69] | 45 to 59

Same assay, conditions: post-emergence, 336 h, CYPSS, 140 g ai/ha, 14 days after application, read-out: Visual Growth Reduction (%) 14 Days After Application CYPSS

SMILES | pest or weed control at 140 g/ha [%]
COC(=O)c1nc(-c2ccc(F)c(F)c2C)cc(N)c1Cl [Compound 69] | 95 to 100

Same assay, conditions: post-emergence, 336 h, DIGSA: crabgrass (Digitaria sanguinalis), 70 g ai/ha, 14 days after application, read-out: Visual Growth Reduction (%) 14 Days After Application DIGSA

SMILES | pest or weed control at 70 g/ha [%]
COC(=O)c1nc(-c2ccc(F)c(F)c2C)cc(N)c1Cl [Compound 69] | 0 to 29

Same assay, conditions: post-emergence, 336 h, DIGSA: crabgrass (Digitaria sanguinalis), 140 g ai/ha, 14 days after application, read-out: Visual Growth Reduction (%) 14 Days After Application DIGSA

SMILES | pest or weed control at 140 g/ha [%]
COC(=O)c1nc(-c2ccc(F)c(F)c2C)cc(N)c1Cl [Compound 69] | 0 to 29

Same assay, conditions: post-emergence, 336 h, ECHSS, 70 g ai/ha, 14 days after application, read-out: Visual Growth Reduction (%) 14 Days After Application ECHSS

SMILES | pest or weed control at 70 g/ha [%]
COC(=O)c1nc(-c2ccc(F)c(F)c2C)cc(N)c1Cl [Compound 69] | 0 to 29

Same assay, conditions: post-emergence, 336 h, ECHSS, 140 g ai/ha, 14 days after application, read-out: Visual Growth Reduction (%) 14 Days After Application ECHSS

SMILES | pest or weed control at 140 g/ha [%]
COC(=O)c1nc(-c2ccc(F)c(F)c2C)cc(N)c1Cl [Compound 69] | 0 to 29

Same assay, conditions: post-emergence, 336 h, ORYSS (crop), 70 g ai/ha, 14 days after application, read-out: Visual Growth Reduction (%) 14 Days After Application ORYSS

SMILES | pest or weed control at 70 g/ha [%]
COC(=O)c1nc(-c2ccc(F)c(F)c2C)cc(N)c1Cl [Compound 69] | 0 to 29

Same assay, conditions: post-emergence, 336 h, ORYSS (crop), 140 g ai/ha, 14 days after application, read-out: Visual Growth Reduction (%) 14 Days After Application ORYSS

SMILES | pest or weed control at 140 g/ha [%]
COC(=O)c1nc(-c2ccc(F)c(F)c2C)cc(N)c1Cl [Compound 69] | 0 to 29

Same assay, conditions: post-emergence, 336 h, SETFA: giant foxtail (Setaria faberi), 70 g ai/ha, 14 days after application, read-out: Visual Growth Reduction (%) 14 Days After Application SETFA

SMILES | pest or weed control at 70 g/ha [%]
COC(=O)c1nc(-c2ccc(F)c(F)c2C)cc(N)c1Cl [Compound 69] | 0 to 29

Same assay, conditions: post-emergence, 336 h, SETFA: giant foxtail (Setaria faberi), 140 g ai/ha, 14 days after application, read-out: Visual Growth Reduction (%) 14 Days After Application SETFA

SMILES | pest or weed control at 140 g/ha [%]
COC(=O)c1nc(-c2ccc(F)c(F)c2C)cc(N)c1Cl [Compound 69] | 0 to 29

Same assay, conditions: post-emergence, 336 h, SORVU: grain sorghum (Sorghum vulgare), 70 g ai/ha, 14 days after application, read-out: Visual Growth Reduction (%) 14 Days After Application SORVU

SMILES | pest or weed control at 70 g/ha [%]
COC(=O)c1nc(-c2ccc(F)c(F)c2C)cc(N)c1Cl [Compound 69] | 0 to 29

Same assay, conditions: post-emergence, 336 h, SORVU: grain sorghum (Sorghum vulgare), 140 g ai/ha, 14 days after application, read-out: Visual Growth Reduction (%) 14 Days After Application SORVU

SMILES | pest or weed control at 140 g/ha [%]
COC(=O)c1nc(-c2ccc(F)c(F)c2C)cc(N)c1Cl [Compound 69] | 0 to 29

Same assay, conditions: post-emergence, 336 h, TRZSS (crop), 70 g ai/ha, 14 days after application, read-out: Visual Growth Reduction (%) 14 Days After Application TRZSS

SMILES | pest or weed control at 70 g/ha [%]
COC(=O)c1nc(-c2ccc(F)c(F)c2C)cc(N)c1Cl [Compound 69] | 0 to 29

Same assay, conditions: post-emergence, 336 h, TRZSS (crop), 140 g ai/ha, 14 days after application, read-out: Visual Growth Reduction (%) 14 Days After Application TRZSS

SMILES | pest or weed control at 140 g/ha [%]
COC(=O)c1nc(-c2ccc(F)c(F)c2C)cc(N)c1Cl [Compound 69] | 0 to 29

Same assay, conditions: post-emergence, 336 h, ZEAMX: maize, corn (Zea mays), 70 g ai/ha, 14 days after application, read-out: Visual Growth Reduction (%) 14 Days After Application ZEAMX

SMILES | pest or weed control at 70 g/ha [%]
COC(=O)c1nc(-c2ccc(F)c(F)c2C)cc(N)c1Cl [Compound 69] | 0 to 29

Same assay, conditions: post-emergence, 336 h, ZEAMX: maize, corn (Zea mays), 140 g ai/ha, 14 days after application, read-out: Visual Growth Reduction (%) 14 Days After Application ZEAMX

SMILES | pest or weed control at 140 g/ha [%]
COC(=O)c1nc(-c2ccc(F)c(F)c2C)cc(N)c1Cl [Compound 69] | 0 to 29

System: Key Broadleaf Weed and Crop Species
Test: Post-Emergent Test II (Table 5)
Assay type: in vivo
Conditions: Abutilon theophrasti, post-emergence, 336 h, ABUTH: velvetleaf (Abutilon theophrasti), application rate 70 (kg ai/ha; footnote: g ai/ha), read-out: Visual Growth Reduction (%) 14 Days After Application ABUTH
In short: as §1

SMILES | pest or weed control at 70 g/ha [%]
COC(=O)c1nc(-c2ccc(F)c(F)c2C)cc(N)c1Cl [Compound 69] | 95 to 100

Same assay, conditions: Abutilon theophrasti, post-emergence, 336 h, ABUTH: velvetleaf (Abutilon theophrasti), application rate 140 (kg ai/ha; footnote: g ai/ha), read-out: Visual Growth Reduction (%) 14 Days After Application ABUTH

SMILES | pest or weed control at 140 g/ha [%]
COC(=O)c1nc(-c2ccc(F)c(F)c2C)cc(N)c1Cl [Compound 69] | 95 to 100

Same assay, conditions: Amaranthus retroflexus, post-emergence, 336 h, AMARE: redroot pigweed (Amaranthus retroflexus), application rate 70 (kg ai/ha; footnote: g ai/ha), read-out: Visual Growth Reduction (%) 14 Days After Application AMARE

SMILES | pest or weed control at 70 g/ha [%]
COC(=O)c1nc(-c2ccc(F)c(F)c2C)cc(N)c1Cl [Compound 69] | 95 to 100

Same assay, conditions: Amaranthus retroflexus, post-emergence, 336 h, AMARE: redroot pigweed (Amaranthus retroflexus), application rate 140 (kg ai/ha; footnote: g ai/ha), read-out: Visual Growth Reduction (%) 14 Days After Application AMARE

SMILES | pest or weed control at 140 g/ha [%]
COC(=O)c1nc(-c2ccc(F)c(F)c2C)cc(N)c1Cl [Compound 69] | 95 to 100

Same assay, conditions: Brassica napus, post-emergence, 336 h, BRSSS: oilseed rape, canola (Brassica napus), application rate 70 (kg ai/ha; footnote: g ai/ha), read-out: Visual Growth Reduction (%) 14 Days After Application BRSSS

SMILES | pest or weed control at 70 g/ha [%]
COC(=O)c1nc(-c2ccc(F)c(F)c2C)cc(N)c1Cl [Compound 69] | 85 to 94

Same assay, conditions: Brassica napus, post-emergence, 336 h, BRSSS: oilseed rape, canola (Brassica napus), application rate 140 (kg ai/ha; footnote: g ai/ha), read-out: Visual Growth Reduction (%) 14 Days After Application BRSSS

SMILES | pest or weed control at 140 g/ha [%]
COC(=O)c1nc(-c2ccc(F)c(F)c2C)cc(N)c1Cl [Compound 69] | 95 to 100

Same assay, conditions: Chenopodium album, post-emergence, 336 h, CHEAL: lambsquarters (Chenopodium album), application rate 70 (kg ai/ha; footnote: g ai/ha), read-out: Visual Growth Reduction (%) 14 Days After Application CHEAL

SMILES | pest or weed control at 70 g/ha [%]
COC(=O)c1nc(-c2ccc(F)c(F)c2C)cc(N)c1Cl [Compound 69] | 95 to 100

Same assay, conditions: Chenopodium album, post-emergence, 336 h, CHEAL: lambsquarters (Chenopodium album), application rate 140 (kg ai/ha; footnote: g ai/ha), read-out: Visual Growth Reduction (%) 14 Days After Application CHEAL

SMILES | pest or weed control at 140 g/ha [%]
COC(=O)c1nc(-c2ccc(F)c(F)c2C)cc(N)c1Cl [Compound 69] | 95 to 100

Same assay, conditions: Euphorbia heterophylla, post-emergence, 336 h, EPHHL: wild poinsettia (Euphorbia heterophylla), application rate 70 (kg ai/ha; footnote: g ai/ha), read-out: Visual Growth Reduction (%) 14 Days After Application EPHHL

SMILES | pest or weed control at 70 g/ha [%]
COC(=O)c1nc(-c2ccc(F)c(F)c2C)cc(N)c1Cl [Compound 69] | 0 to 29

Same assay, conditions: Euphorbia heterophylla, post-emergence, 336 h, EPHHL: wild poinsettia (Euphorbia heterophylla), application rate 140 (kg ai/ha; footnote: g ai/ha), read-out: Visual Growth Reduction (%) 14 Days After Application EPHHL

SMILES | pest or weed control at 140 g/ha [%]
COC(=O)c1nc(-c2ccc(F)c(F)c2C)cc(N)c1Cl [Compound 69] | 0 to 29

Same assay, conditions: Helianthus annuus, post-emergence, 336 h, HELAN: sunflower (Helianthus annuus), application rate 70 (kg ai/ha; footnote: g ai/ha), read-out: Visual Growth Reduction (%) 14 Days After Application HELAN

SMILES | pest or weed control at 70 g/ha [%]
COC(=O)c1nc(-c2ccc(F)c(F)c2C)cc(N)c1Cl [Compound 69] | 85 to 94

Same assay, conditions: Helianthus annuus, post-emergence, 336 h, HELAN: sunflower (Helianthus annuus), application rate 140 (kg ai/ha; footnote: g ai/ha), read-out: Visual Growth Reduction (%) 14 Days After Application HELAN

SMILES | pest or weed control at 140 g/ha [%]
COC(=O)c1nc(-c2ccc(F)c(F)c2C)cc(N)c1Cl [Compound 69] | 85 to 94

Same assay, conditions: Viola tricolor, post-emergence, 336 h, VIOTR: wild pansy (Viola tricolor), application rate 70 (kg ai/ha; footnote: g ai/ha), read-out: Visual Growth Reduction (%) 14 Days After Application VIOTR

SMILES | pest or weed control at 70 g/ha [%]
COC(=O)c1nc(-c2ccc(F)c(F)c2C)cc(N)c1Cl [Compound 69] | 0 to 29

Same assay, conditions: Viola tricolor, post-emergence, 336 h, VIOTR: wild pansy (Viola tricolor), application rate 140 (kg ai/ha; footnote: g ai/ha), read-out: Visual Growth Reduction (%) 14 Days After Application VIOTR

SMILES | pest or weed control at 140 g/ha [%]
COC(=O)c1nc(-c2ccc(F)c(F)c2C)cc(N)c1Cl [Compound 69] | 0 to 29

System: not given
Test: not given
Conditions: not given

melting point [°C] | SMILES
120 to 126 | COC(=O)c1nc(-c2ccc(F)c(F)c2C)cc(N)c1Cl [Compound 69]
